According to patent publication US20040010001A1, “Methods and compositions for modulating cell proliferation and cell death” (priority 1999, published 2004):
Where two headings read alike, the source gives them in different places. Each block holds one compound with its values, some of them ahead of it.

Columns and labels:
[1] = tested on: Human prostate PC3 tumor cells; test: Drug treatment and extracellular bFGF (ELISA), LDH release, cell number; assay type: cell-based; conditions: for Extracellular LDH, % of control / Extracellular bFGF, % of control / Extracellular concentration bFGF / bFGF:LDH ratio: 72 hours
Description: The experimental conditions are described briefly below. […] The remaining cell number at the end of treatment was counted using a Coulter counter. The extracellular bFGF concentration was measured using ELISA. The release of lactate dehydrogenase (LDH) into the extracellular culture medium is indicative of cell death and gives a measure of the release of cellular content into the culture medium. If the increase in extracellular bFGF level is due to the release of bFGF upon cell death and lysis, the increase in bFGF will be accompanied by an increase in LDH in the same extent. This would result in an higher bFGF level and a constant bFGF-to-LDH ratio. On the other hand, an increase in extracellular bFGF due to an increase in bFGF production and release of bFGF from cells by processes other than cell lysis will result in an higher bFGF level and an higher bFGF-to-LDH ratio.

[2] = tested on: rat lung metastases, histocultures; test: Drug effect in histocultures of rat lung metastases (inhibition of 3H-thymidine incorporation); assay type: cell-based
subcutaneous PC3 tumors = conditions: suramin 10 mg/kg, doxorubicin 5 mg/kg, twice weekly for 3 weeks
Description: Briefly, PC3 cells (5×10^6 cells) were injected subcutaneously.

[3] = tested on: Human prostate PC3 tumor cells; test: Intracellular drug accumulation with or without CM or r-bFGF; conditions: unchanged with or without CM or r-bFGF; 1 nM paclitaxel, 50 nM doxorubicin, 500 nM 5-fluorouracil; 4 hours
[4] = tested on: human prostate PC3-LN tumor cells; test: cells; assay type: cell-based; conditions: read-out: IC50 in the monolayer cultures of PC3-LN cells
[5] = tested on: human PC3-LN lung metastases
Description: Animal care was in accordance with the guidelines at the Ohio State University. Several human tumor models were used, including (a) lung metastases derived from intravenous injection of human PC3-LN tumor cells, (b) lung tumors derived from direct injection of human PC3 cells in lungs, and (c) subcutaneously implanted PC3 tumors. Four studies were performed. In all studies, drug treatment was administered intravenously via a tail vein, after the tumor was established. The first and second studies used the intravenous PC3-LN lung metastasis model. Briefly, human PC3-LN cells ([…] in 0.1 ml physiologic saline) were injected intravenously, via a tail vein, into immunodeficient mice. […] Treatment was given twice weekly for three weeks. […] Three days after completion of drug treatments, animals were euthanized and their lungs removed, fixed in Bouin's solution to visualize tumor nodules, and then processed for histologic evaluation. […] The lung surface area (counted as number of pixel) occupied by the tumor was calculated as a fraction of the total lung area, using Adobe PhotoShop. The number of tumor cells in residual tumors and the fraction of apoptotic cells in each tumor were also determined microscopically. Because apoptotic cells disappear over time, a second measure of the extent of apoptosis was the density of non-apoptotic cells in the residual tumors. This was determined by counting the number of non-apoptotic tumor cells in randomly selected microscopic fields at 400× magnification. […] In the case of combination therapy where fewer than 5 tumor nodules remained per animal, all residual cells (between 20 to 600 cells per animal) were counted.

[6] = tested on: rat lymph node metastases, histocultures; test: Drug effect in histocultures of rat lymph node metastases (inhibition of 3H-thymidine incorporation); assay type: cell-based
rat MAT-LyLu tumor cells = test: Reversal of CM-induced resistance by FGF antibodies and suramin, BrdU incorporation; assay type: cell-based; conditions: Rattus norvegicus, read-out: IC50 in the presence of 1.6 micromolar suramin; CM of lung metastases histocultures; unchanged in the absence or presence of 5 microgram/ml anti-bFGF antibody
Description: The source of CM was lung histocultures for the aFGF experiment, and early monolayer lung cultures for the bFGF experiment. The study used four controls: no CM (left solid curves, open circles); addition of 5 μg/ml aFGF or bFGF antibody but no CM (inverted filled triangle, overlaps with the left control curve); addition of CM but no antibody (right solid curves, open square); addition of CM plus a nonspecific antibody, IgG (5 μg/ml, filled diamond, overlaps with the right CM-control curve). Dotted curves, from right to left, addition of aFGF or bFGF antibody concentrations of 0.05 μg/ml (filled circle); 0.1 μg/ml (filled square); 1 or 0.5 μg/ml (filled triangle); and 5 μg/ml (open inverted triangle). […] Similar results were also found for human PC3 prostate tumor cells.
The first study used specific inhibitors of extracellular aFGF and bFGF, i.e., monoclonal antibodies (FIG. 2A). […] In the presence of the active CM, the bFGF antibody produced a concentration-dependent reversal of the CM-induced chemoresistance, with complete reversal by 5 microgram/ml antibody, whereas a nonspecific antibody (i.e., non-immune rabbit IgG) had no effect. For aFGF, the antibody treatment partially reversed the CM-induced resistance; the maximum reversal was about 60% that was obtained with 1 microgram/ml antibody with no significant additional reversal at a 5-fold higher concentration. The second study evaluated the effect of removing aFGF and/or bFGF from the active CM by immunoprecipitation. Removal of bFGF abolished the resistance, whereas removal of aFGF only partially reversed the CM effect. These two studies indicate that both aFGF and bFGF were involved in the resistance, but had different roles.
This study was performed using the rat MAT-LyLu tumor cells as the model tumor cells and using doxorubicin and paclitaxel as the model anticancer agents. The CM used to induce resistance was collected from histocultures of lung metastases (see Table 1). Five microgram/ml anti-bFGF antibody was added.

[7] = tested on: normal rat intestinal epithelial cells (IEC6); test: Protection of normal intestinal epithelial cells by aFGF/bFGF, BrdU incorporation; assay type: cell-based; conditions: drug 24 hours
Description: These cells were derived from normal, noncancerous intestinal epithelium. […] Drug effect was measured as the reduction of bromodeoxyuridine incorporation in treated cells relative to untreated controls.

human PC3 lung tumors = test: Lung tumors established by direct injection of PC3 cells into the lungs of immunodeficient mice; assay type: in vivo; conditions: doxorubicin three doses of 10 mg/kg, suramin three doses of 20 mg/kg, day 12
Description: Animal care was in accordance with the guidelines at the Ohio State University. Several human tumor models were used, including (a) lung metastases derived from intravenous injection of human PC3-LN tumor cells, (b) lung tumors derived from direct injection of human PC3 cells in lungs, and (c) subcutaneously implanted PC3 tumors. Four studies were performed. In all studies, drug treatment was administered intravenously via a tail vein, after the tumor was established. The first and second studies used the intravenous PC3-LN lung metastasis model. Briefly, human PC3-LN cells ([…] in 0.1 ml physiologic saline) were injected intravenously, via a tail vein, into immunodeficient mice. […] Treatment was given twice weekly for three weeks. […] The lung surface area (counted as number of pixel) occupied by the tumor was calculated as a fraction of the total lung area, using Adobe PhotoShop. The number of tumor cells in residual tumors and the fraction of apoptotic cells in each tumor were also determined microscopically. […] This was determined by counting the number of non-apoptotic tumor cells in randomly selected microscopic fields at 400× magnification. […] In the case of combination therapy where fewer than 5 tumor nodules remained per animal, all residual cells (between 20 to 600 cells per animal) were counted.

[8] = doxorubicin study: suramin 10 mg/kg, doxorubicin 5 mg/kg, intravenous twice weekly for three weeks
[9] = suramin 10 mg/kg, doxorubicin 5 mg/kg, intravenous twice weekly for three weeks
[10] = IEC-6, absence of aFGF and bFGF
[11] = IEC-6, pretreated with 1 ng/ml aFGF and 3 ng/ml bFGF for 96 hours
[12] = paclitaxel study: suramin 10 mg/kg, paclitaxel 15 mg/kg, intravenous twice weekly for three weeks
[13] = 24 h, read-out: Concentration producing 50% inhibition (data shown are the concentrations that produced 30% inhibition)

SMILES: O=c1[nH]cc(F)c(=O)[nH]1 [5-Fluorouracil]
Remaining cell number at 72 hours (% of control) ([1]; drug concentration 2000 NM): 88%
Remaining cell number at 72 hours × 10^6 ([1]; drug concentration 2000 NM): 2.2 × 10^6
Extracellular LDH, % of control ([1]; drug concentration 2000 NM): 121 % of control
Extracellular bFGF, % of control ([1]; drug concentration 2000 NM): 139 % of control
Extracellular concentration bFGF ([1]; drug concentration 2000 NM): 8.37 pg/mL
bFGF:LDH ratio ([1]; drug concentration 2000 NM): 1.15
Remaining cell number at 72 hours (% of control) ([1]; drug concentration 6000 NM): 56%
Remaining cell number at 72 hours × 10^6 ([1]; drug concentration 6000 NM): 1.4 × 10^6
Extracellular LDH, % of control ([1]; drug concentration 6000 NM): 158 % of control
Extracellular bFGF, % of control ([1]; drug concentration 6000 NM): 189 % of control
Extracellular concentration bFGF ([1]; drug concentration 6000 NM): 11.35 pg/mL
bFGF:LDH ratio ([1]; drug concentration 6000 NM): 1.20
Remaining cell number at 72 hours (% of control) ([1]; drug concentration 20000 NM): 24%
Remaining cell number at 72 hours × 10^6 ([1]; drug concentration 20000 NM): 0.6 × 10^6
Extracellular LDH, % of control ([1]; drug concentration 20000 NM): 202 % of control
Extracellular bFGF, % of control ([1]; drug concentration 20000 NM): 296 % of control
Extracellular concentration bFGF ([1]; drug concentration 20000 NM): 17.8 pg/mL
bFGF:LDH ratio ([1]; drug concentration 20000 NM): 1.46
IC50 ([2]; Histocultures, Lung, 96 hours, read-out: Concentration producing 50% inhibition): 122000 ± 25000 nM

plateau intracellular concentration [3]: 40 pmol/10^6 cells
IC50 [4]: 17 nM
IC50 ([6]; Histocultures, Lymph node, 96 hours, read-out: Concentration producing 50% inhibition): 165 ± 66 nM
IC50 (rat MAT-LyLu tumor cells): 13 nM
SMILES: COc1cccc2c1C(=O)c1c(O)c3c(c(O)c1C2=O)C[C@@](O)(C(=O)CO)C[C@@H]3O[C@H]1C[C@H](N)[C@H](O)[C@H](C)O1 [Doxorubicin]
effect on tumor growth (subcutaneous PC3 tumors): reduced the tumor growth but did not cause tumor regression
Remaining cell number at 72 hours (% of control) ([1]; drug concentration 20 NM): 84%
Remaining cell number at 72 hours × 10^6 ([1]; drug concentration 20 NM): 2.1 × 10^6
Extracellular LDH, % of control ([1]; drug concentration 20 NM): 119 % of control
Extracellular bFGF, % of control ([1]; drug concentration 20 NM): 124 % of control
Extracellular concentration bFGF ([1]; drug concentration 20 NM): 5.87 pg/mL
Remaining cell number at 72 hours (% of control) ([1]; drug concentration 60 NM): 48%
Remaining cell number at 72 hours × 10^6 ([1]; drug concentration 60 NM): 1.2 × 10^6
Extracellular LDH, % of control ([1]; drug concentration 60 NM): 173 % of control
Extracellular bFGF, % of control ([1]; drug concentration 60 NM): 239 % of control
Extracellular concentration bFGF ([1]; drug concentration 60 NM): 11.3 pg/mL
Remaining cell number at 72 hours (% of control) ([1]; drug concentration 200 NM): 16%
Remaining cell number at 72 hours × 10^6 ([1]; drug concentration 200 NM): 0.4 × 10^6
Extracellular LDH, % of control ([1]; drug concentration 200 NM): 316 % of control
Extracellular bFGF, % of control ([1]; drug concentration 200 NM): 461 % of control
Extracellular concentration bFGF ([1]; drug concentration 200 NM): 21.8 pg/mL
reduction of tumor size ([5]; doxorubicin 5 mg/kg alone): ~80%
% Apoptotic cells per tumor [5, 8]: 29 ± 16 %
Density of nonapoptotic cells in residual tumors, cells/field [5, 8]: 77 ± 17 cells/field
% Lung surface area occupied by tumor [5, 9]: 2 ± 1 %
% Tumor-free animals [5, 9]: 0%
IC50 [7, 10]: 292 nM
IC50 [7, 11]: 544 nM
tumor-free animals (human PC3 lung tumors): 25%

IC50 [4]: 8 nM
IC50 (rat MAT-LyLu tumor cells): 14 nM
SMILES: CC(=O)O[C@H]1C(=O)[C@@]2(C)[C@H]([C@H](OC(=O)c3ccccc3)[C@]3(O)C[C@H](OC(=O)[C@H](O)[C@@H](NC(=O)c4ccccc4)c4ccccc4)C(C)=C1C3(C)C)[C@]1(OC(C)=O)CO[C@@H]1C[C@@H]2O [Paclitaxel]
Remaining cell number at 72 hours (% of control) ([1]; drug concentration 2.5 NM): 87%
Remaining cell number at 72 hours × 10^6 ([1]; drug concentration 2.5 NM): 2.0 × 10^6
Extracellular bFGF, % of control ([1]; drug concentration 2.5 NM): 347 % of control
Extracellular concentration bFGF ([1]; drug concentration 2.5 NM): 19.5 pg/mL
Remaining cell number at 72 hours (% of control) ([1]; drug concentration 5 NM): 43%
Remaining cell number at 72 hours × 10^6 ([1]; drug concentration 5 NM): 1.0 × 10^6
Extracellular LDH, % of control ([1]; drug concentration 5 NM): 437 % of control
Extracellular bFGF, % of control ([1]; drug concentration 5 NM): 1358 % of control
Extracellular concentration bFGF ([1]; drug concentration 5 NM): 76.3 pg/mL
Remaining cell number at 72 hours (% of control) ([1]; drug concentration 10 NM): 22%
Remaining cell number at 72 hours × 10^6 ([1]; drug concentration 10 NM): 0.5 × 10^6
Extracellular LDH, % of control ([1]; drug concentration 10 NM): 705 % of control
Extracellular bFGF, % of control ([1]; drug concentration 10 NM): 2917 % of control
Extracellular concentration bFGF ([1]; drug concentration 10 NM): 164 pg/mL
increase of the fraction of apoptotic cells ([5]; paclitaxel 15 mg/kg alone): 13 fold
reduction of the density of nonapoptotic cells ([5]; paclitaxel 15 mg/kg alone): ~70%
% Apoptotic cells per tumor [5, 12]: 53 ± 24 %
Density of nonapoptotic cells in residual tumors, cells/field [5, 12]: 49 ± 35 cells/field
IC30 (concentration producing 30% inhibition) [6, 13]: > 227 nM
IC50 [7, 10]: 491 nM
IC50 [7, 11]: 1450 nM
IC30 [2, 13]: > 1800 nM
